Data: patent US10988457B2, “TLR inhibitors” (Insilico Medicine IP Limited, priority 2019, dated 2021)
Where two headings read alike, the source gives them in different places.

Tests used:
TLR7/8 [1] = assay: TLR7/8 Inhibition Assay IC50 in human PBMC's, cytokine release after CL075 stimulation (Luminex); format: cell-based; details: human PBMC's from one donor, CL075 2 μg/mL, 24 hours, eight concentrations 0.01-100 μM
Experimental: (§1) Cryopreserved human PBMC's were drip-thawed. Cells were diluted to the appropriate density (1×10^5 per well) and seeded into 96-well polypropylene plates with 150 μL per well of culture medium (RPMI 1640, 10% heat-inactivated FBS, 1% penicillin/streptomycin, 2 mM L-glutamine) for compound test wells.
Consequently, the final DMSO vehicle concentration in the assay was from 1 to 0.5%.
Than plates were centrifuged at 200×g for 10 minutes. […] Cytokine levels in each sample were determined using Luminex methodology, per the manufacturer's protocol.
The interpolated data were then normalized to the vehicle or unstimulated control.
Outlier calculation was performed using the Grubbs maximum normed residual test.
Eight test compounds were evaluated for their ability to inhibit the TLR7/8 in PBMC's from one human donor following incubation of 24 hours.

TLR7/8 [2] = details: reference compound 100 nM, CL075 2 μg/mL, human PBMC's, 24 hours
Experimental: Namely, in the present experiment their ability was evaluated to inhibit TLR7/8 in human PBMC's, as measured by the release of specific cytokines. The following cytokines were measured for a complete cytokine response profile (no dilution of samples): IL-1β, IL-6, IL-12p40, TNFα and IFNα.
Levels of each cytokine induction were interpolated from standard curves using a 5-parameter non-linear regression analysis, where y=(A+((B−A)/(1+(((B−E)/(E−A))*((x/C)^D))))). The interpolated data were then normalized to the vehicle control. Percent of control (PoC) was also calculated using the formula, PoC=(test sample/positive vehicle control)×100.
as §1, with “Fetal Bovine Serum (FBS),” for “FBS,”, “wells. For the control wells, cells (1×10^5 per well) were plated in 150 μL per well of culture medium.” for “wells.”
Cells were incubated at 37° C., 5% CO2 for 1 hour prior to the addition of test compounds or controls.
Test compounds were solubilized in DMSO to make 20× stock solutions, then diluted further with cell culture medium.
Test compounds were added to the PBMC's in volumes of 10 μL and incubated for 1 hour at 37° C., 5% CO2. Compounds were tested in duplicates at final assay concentrations of 10 μM.
Plates were incubated at 37° C., 5% CO2 for 24 hours. Plates were centrifuged at 200×g for 10 minutes. Cell culture supernatants were collected and stored at −80° C. until needed for analysis.
Harvested cell culture supernatants were measured for IL-1β, IL-6, IL-12p40, TNFα and IFNα release to assess dual TLR7/8 inhibition.

[3] = read-out: IC50 levels for test compounds, IFNα
[4] = read-out: IC50 levels for test compounds, IL-1β
[5] = read-out: IC50 levels for test compounds, L-6
[6] = read-out: IC50 levels for test compounds, L-12p40
[7] = read-out: IC50 levels for test compounds, TNFα

SMILES | IC50 (TLR7/8 [1]; [3]) | IC50 (TLR7/8 [1]; [4]) | IC50 (TLR7/8 [1]; [5]) | IC50 (TLR7/8 [1]; [6]) | IC50 (TLR7/8 [1]; [7]) | TLR7/8 Inhibition, IFNα (POC %) (TLR7/8 [2]) | TLR7/8 Inhibition, IL-1β (POC %) (TLR7/8 [2]) | TLR7/8 Inhibition, IL-6 (POC %) (TLR7/8 [2]) | TLR7/8 Inhibition, IL-12p40 (POC %) (TLR7/8 [2]) | TLR7/8 Inhibition, TNFα (POC %) (TLR7/8 [2])
COc1ccc2c(c1)CCN(CCNC(=O)C1CCCN(c3ccc(C#N)cc3F)C1)C2 (stereo not drawn) [Compound 25] | ≤ 10 µM | > 20 µM | ≤ 10 µM | 10 to 20 µM | > 20 µM |  |  |  |  | 
COc1ccc2c(c1)CCN(CCNC(=O)C1CCCN(c3ccc(C#N)cc3)C1)C2 (stereo not drawn) [Compound 24] | ≤ 10 µM | > 20 µM | > 20 µM | 10 to 20 µM | > 20 µM |  |  |  |  | 
COc1ccc2c(c1)CCN(CCCNC(=O)C1CCN(c3ccc(C#N)cc3)CC1)C2 [Compound 26] | ≤ 10 µM | > 20 µM | > 20 µM | 10 to 20 µM | ≤ 10 µM |  |  |  |  | 
N#Cc1ccc(N2CCCC(C(=O)NCCN3CCc4ccccc43)C2)c(F)c1 (stereo not drawn) [Compound 15] | > 20 µM | ≤ 10 µM | > 20 µM | 10 to 20 µM | > 20 µM |  |  |  |  | 
C[C@@H]1C[C@H]2[C@@H]3CCC4=CC(=O)C=C[C@]4(C)[C@@]3(F)[C@@H](O)C[C@]2(C)[C@@]1(O)C(=O)CO [Dexamethasone, dexamethasone] |  |  |  |  |  | 26.1% | 26.8% | 34.7% | 34.2% | 95.2%
COc1ccc2c(c1)CCN(CCNC(=O)C1CCN(c3ccc(C(F)(F)F)cn3)CC1)C2 [Compound 22, N-(2-(6-methoxy-3,4-dihydroisoquinolin-2(19)-yl)ethyl)-1-(5-(trifluoromethyl)pyridin-2-yl)piperidine-4-carboxamide] | ≤ 10 µM | > 20 µM | > 20 µM | > 20 µM | > 20 µM |  |  |  |  | 
